Test results reported in US11452707B2, “Use of cannabidiol in preparation of drugs for resisting against influenza” (priority 2017, dated 2022).
Like-named read-outs stand apart in the source and are kept apart here.

Experiments:
H1N1 = system: H1N1; parameters: species or system influenza A virus H1N1; settings: in vivo
[1] = mouse, in vivo; cited from earlier work
H1N1 WSN [2] = type: cell-based, influenza A virus H1N1; settings: 24 h
H1N1 WSN (A/WSN/33) [3] = experiment: H1N1 WSN-infected mice: inflammatory cells in alveolar lavage fluid (Diff-Quick staining); type: in vivo, influenza A virus H1N1; settings: DPI 8, 20 mg/kg/d; for number of macrophages in the alveolar lavage fluid: Tamiflu P<0.01, CBD P<0.001
H1N1 WSN (A/WSN/33) [4] = system: H1N1 WSN (A/WSN/33); parameters: species or system influenza A virus H1N1; settings: in vivo; for activities of the infected mice / body temperature drop / body weight drop / discomfort caused by influenza / mice died / mice in group / mortality of mice caused by H1N1 WSN infection: ip, 20 mg/kg/day
H1N1 WSN [5] = type: cell-based, influenza A virus H1N1; settings: 24 h; remark: listed apart in the source
H1N1 WSN (A/WSN/33) [6] = experiment: H1N1 WSN-infected mice: pulmonary vascular permeability test (Evans Blue); type: in vivo, influenza A virus H1N1; settings: DPI 8; 20 mg/kg/d i.p. from Day 4; vs high toxicity group; Tamiflu P<0.05, CBD P<0.01
H5N1 [7] = type: cell-based, influenza A virus H5N1; settings: 1 μM; 24 h
H5N1 [8] = system: H5N1; parameters: species or system influenza A virus H5N1; settings: in vivo
H1N1 WSN (A/WSN/33) [9] = experiment: H1N1 WSN-infected mice: pathological section of lung tissue (HE); type: in vivo, influenza A virus H1N1; settings: DPI 8; 20 mg/kg/d i.p. from Day 4
IAV = system: IAV; parameters: species or system Influenza A Virus; settings: in vivo
H1N1 WSN (A/WSN/33) [10] = experiment: H1N1 WSN-infected mice: lung index; type: in vivo, influenza A virus H1N1; settings: DPI 8; for lung injury index of mice caused by H1N1 WSN infection: 20 mg/kg/d i.p. from Day 4, vs high toxicity group, P<0.05
[11] = system: H5N1 A/great black-headed gull/Qinghai/2009 (H5N1); parameters: species or system influenza A virus H5N1; settings: in vivo, 20 mg/kg/day
[12] = oral and systemic use; cited from earlier work
[13] = of the 119 deaths; cited from earlier work

C=C(C)[C@@H]1CCC(C)=C[C@H]1c1c(O)cc(CCCCC)cc1O [CBD, Cannabidiol]
mortality in mice caused by IAV infection (H1N1): inhibited the same mortality | LPS-induced acute lung injury [1]: inhibits | expression of PA gene in H1N1 WSN (H1N1 WSN [2]; 5 μM): significantly reduced | expression of PB1 gene in H1N1 WSN (H1N1 WSN [2]; 5 μM): significantly reduced | number of neutrophils in the alveolar lavage fluid, compared with the Tamiflu group (H1N1 WSN (A/WSN/33) [3]): very significant reduction | number of macrophages in the alveolar lavage fluid, compared with the Tamiflu group (H1N1 WSN (A/WSN/33) [3]; P<0.05): significant reduction | number of macrophages in the alveolar lavage fluid (H1N1 WSN (A/WSN/33) [3]): significantly reduced | number of lymphocytes in the alveolar lavage fluid (H1N1 WSN (A/WSN/33) [3]; vs IAV treatment group, P<0.01): significantly reduced | number of neutrophils in the alveolar lavage fluid (H1N1 WSN (A/WSN/33) [3]; vs high toxicity treatment group, P<0.001): significantly reduced | mortality, CBD group compared with Tamiflu group (H1N1 WSN (A/WSN/33) [4]): no significant difference | activities of the infected mice (H1N1 WSN (A/WSN/33) [4]): significantly increased | body temperature drop (H1N1 WSN (A/WSN/33) [4]): significantly inhibited | body weight drop (H1N1 WSN (A/WSN/33) [4]): significantly inhibited | discomfort caused by influenza (H1N1 WSN (A/WSN/33) [4]): significantly alleviated | mice died / mice in group (H1N1 WSN (A/WSN/33) [4]): 10/20 | mortality of mice caused by H1N1 WSN infection (H1N1 WSN (A/WSN/33) [4]): significantly reduced | expression of NP gene in H1N1 WSN (H1N1 WSN [5]; 5 μM): significantly reduced | expression of PA gene in H1N1 WSN (H1N1 WSN [5]; 5 μM): significantly reduced | expression of PB1 gene in H1N1 WSN (H1N1 WSN [5]; 5 μM): significantly reduced | expression of PB2 gene in H1N1 WSN (H1N1 WSN [5]; 5 μM): significantly reduced | mouse pulmonary capillary permeability caused by H1N1 WSN infection (H1N1 WSN (A/WSN/33) [6]): significantly reduced | expression of NP gene in H5N1 (H5N1 [7]): significantly reduced | expression of PA gene in H5N1 (H5N1 [7]): significantly reduced | expression of PB1 gene in H5N1 (H5N1 [7]): significantly reduced | expression of PB2 gene in H5N1 (H5N1 [7]): significantly reduced | mortality in mice caused by IAV infection (H5N1 [8]): inhibited the same mortality | inflammatory cell infiltration (lung pathology) (H1N1 WSN (A/WSN/33) [9]): significantly reduced | mortality of mice caused by IAV infection (IAV; 20 mg/kg/day): significantly inhibited | mortality of mice caused by IAV infection (IAV; 60 mg/kg/day): significantly inhibited | lung injury index of mice caused by H1N1 WSN infection (H1N1 WSN (A/WSN/33) [10]): significantly reduced | lung index, CBD group compared with Tamiflu group (H1N1 WSN (A/WSN/33) [10]; both 20 mg/kg/d): no significant difference | activities of the infected mice [11]: significantly increased | discomfort caused by influenza [11]: significantly alleviated | mortality (mice died / mice in group) [11]: 10/10 | mortality compared with the influenza group [11]: no significant difference | survival time of mice after H5N1 infection prolonged by [11]: 24 h | body temperature drop ([11]; ip): significantly inhibited | body weight drop caused by H5N1 ([11]; ip): Significantly Inhibited | severity of joint damage and the acute and chronic courses of arthritis [12]: significantly reduce

CCOC(=O)C1=C[C@@H](OC(CC)CC)[C@H](NC(C)=O)[C@@H](N)C1 [Tamiflu, oseltamivir, reference compound]
expression of PA gene in H1N1 WSN (H1N1 WSN [2]; 10 μM): no significant inhibitory effect | expression of PB1 gene in H1N1 WSN (H1N1 WSN [2]; 10 μM): no significant inhibitory effect | number of macrophages in the alveolar lavage fluid (H1N1 WSN (A/WSN/33) [3]): significantly reduced | activities of the infected mice (H1N1 WSN (A/WSN/33) [4]): significantly increased | body temperature drop (H1N1 WSN (A/WSN/33) [4]): significantly inhibited | body weight drop (H1N1 WSN (A/WSN/33) [4]): significantly inhibited | discomfort caused by influenza (H1N1 WSN (A/WSN/33) [4]): significantly alleviated | mice died / mice in group (H1N1 WSN (A/WSN/33) [4]): 9/20 | mortality of mice caused by H1N1 WSN infection (H1N1 WSN (A/WSN/33) [4]): significantly reduced | expression of NP gene in H1N1 WSN (H1N1 WSN [5]; 10 μM): no significant inhibitory effect | expression of PA gene in H1N1 WSN (H1N1 WSN [5]; 10 μM): no significant inhibitory effect | expression of PB1 gene in H1N1 WSN (H1N1 WSN [5]; 10 μM): no significant inhibitory effect | expression of PB2 gene in H1N1 WSN (H1N1 WSN [5]; 10 μM): no significant inhibitory effect | mouse pulmonary capillary permeability caused by H1N1 WSN infection (H1N1 WSN (A/WSN/33) [6]): significantly reduced | deaths who took Tamiflu that experienced severe illness or death within 12 hours after taking the drug [13]: 38 | expression of NP gene in H5N1 (H5N1 [7]): significantly reduced | expression of PA gene in H5N1 (H5N1 [7]): significantly reduced | expression of PB1 gene in H5N1 (H5N1 [7]): significantly reduced | expression of PB2 gene in H5N1 (H5N1 [7]): significantly reduced | inflammatory cell infiltration (lung pathology) (H1N1 WSN (A/WSN/33) [9]): significantly reduced | mortality of mice caused by IAV infection (IAV; 20 mg/kg/day): significantly inhibited | lung injury index of mice caused by H1N1 WSN infection (H1N1 WSN (A/WSN/33) [10]): significantly reduced
